Drawing on BindingDB's records for patent US12404295 (Idorsia Pharmaceuticals, 2025), this text covers IC50 for 26 compounds.

SMILES strings stand for the structures.

Chain of Galectin-3 (P17931 whole entry): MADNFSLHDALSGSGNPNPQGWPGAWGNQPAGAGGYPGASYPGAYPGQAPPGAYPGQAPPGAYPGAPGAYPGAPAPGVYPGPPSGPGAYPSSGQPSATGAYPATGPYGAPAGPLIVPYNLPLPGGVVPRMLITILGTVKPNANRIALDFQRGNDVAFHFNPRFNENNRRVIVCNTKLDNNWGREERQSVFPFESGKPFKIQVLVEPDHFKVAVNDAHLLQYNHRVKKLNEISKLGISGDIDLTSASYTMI

This assay concerns the target Galectin-3 (Homo sapiens, UniProt P17931). Nature of the assay: Competitive Binding Assay. How it is done:
The inhibitory activity of compounds is determined in competitive binding assays. This spectrophotometric assay measures the binding of biotinylated human Gal-3 (hGal-3) or human Gal-1 (hGal-1), respectively, to a microplate-adsorbed glycoprotein, asialofetuin (ASF).Briefly, compounds are serially diluted in DMSO (working dilutions). […] Finally, 25 μL/well of ABTS substrate is added.
As to `Cc1ccccc1[C@@H](S[C@@H]1O[C@H](CO)[C@H](O)[C@H](n2cc(-c3cc(F)c(F)c(F)c3)nn2)[C@H]1O)[C@]1(O)CCOC(C)(C)C1` [US12404295, Example 2.43.112RS.], the IC50 amounted to 130 nM.
Regarding `OC[C@H]1O[C@@H](SC(c2cccc(Cl)c2Cl)C2(O)CCC(F)(F)CC2)[C@H](O)[C@@H](n2cc(-c3cc(F)c(F)c(F)c3)nn2)[C@H]1O` (stereo partly specified) [US12404295, Example 2.44.113.], the 50% inhibitory concentration (IC50) was found to be 360 nM.
On to `Cc1ccccc1[C@@H](S[C@@H]1O[C@H](CO)[C@H](O)[C@H](n2cc(-c3cc(F)c(F)c(F)c3)nn2)[C@H]1O)[C@@]1(O)CCOC(C)(C)C1` [US12404295, Example 2.43.112RR.], for which the concentration for half-maximal inhibition (IC50) was 1500 nM.
As for `OC[C@H]1O[C@@H](S[C@H](c2cccc(Cl)c2Cl)C2(O)CCC(F)(F)CC2)[C@H](O)[C@@H](n2cc(-c3cc(F)c(F)c(F)c3)nn2)[C@H]1O` [US12404295, Example 2.44.113R.], the IC50 was determined as 800 nM.
Compound `Cc1ccccc1[C@H](S[C@@H]1O[C@H](CO)[C@H](O)[C@H](n2cc(-c3cc(F)c(F)c(F)c3)nn2)[C@H]1O)[C@]1(O)CCOC(C)(C)C1` [US12404295, Example 2.43.112SS.] came in with a concentration for half-maximal inhibition (IC50) of 7300 nM.
For `CC(C)Cc1c(C(S[C@@H]2O[C@H](CO)[C@H](O)[C@H](n3cc(-c4cc(F)c(F)c(F)c4)nn3)[C@H]2O)C2(O)CCC(F)(F)CC2)noc1C1CC1` (stereo partly specified) [US12404295, Example 2.44.131.] the value was 110 nM; for `OC[C@H]1O[C@@H](S[C@@H](c2ncccc2C(F)(F)F)C2(O)CC(F)(F)C2)[C@H](O)[C@@H](n2cc(-c3cc(F)c(F)c(F)c3)nn2)[C@H]1O` [US12404295, Example 2.35.125S.], 3000 nM; for `CC1(C)CC(O)([C@H](S[C@@H]2O[C@H](CO)[C@H](O)[C@H](n3cc(-c4cc(F)c(F)c(F)c4)nn3)[C@H]2O)c2ccccc2C(F)(F)F)CC(C)(C)O1` [US12404295, Example 2.42.102R.], 90 nM.
For `CC1(C)C[C@@](O)([C@@H](S[C@@H]2O[C@H](CO)[C@H](O)[C@H](n3cc(-c4cc(F)c(F)c(F)c4)nn3)[C@H]2O)c2ccccc2C(F)(F)F)CCO1` [US12404295, Example 2.43.102SR.] the value was 3900 nM.
As for `Cc1nc(C(S[C@@H]2O[C@H](CO)[C@H](O)[C@H](n3cc(-c4cc(F)c(F)c(F)c4)nn3)[C@H]2O)C(C)(C)O)c(C)s1` (stereo partly specified) [US12404295, Example 2.31.123.], the figure is 550 nM; as for `Cc1nc([C@@H](S[C@@H]2O[C@H](CO)[C@H](O)[C@H](n3cc(-c4cc(F)c(F)c(F)c4)nn3)[C@H]2O)C(C)(C)O)c(C)s1` [US12404295, Example 2.31.123R.], 280 nM; as for `CC1(C)C[C@@](O)([C@H](S[C@@H]2O[C@H](CO)[C@H](O)[C@H](n3cc(-c4cc(F)c(F)c(F)c4)nn3)[C@H]2O)c2ccccc2C(F)(F)F)CCO1` [US12404295, Example 2.43.102RR.], 290 nM.
Take `CC1(C)CC(O)([C@@H](S[C@@H]2O[C@H](CO)[C@H](O)[C@H](n3cc(-c4cc(F)c(F)c(F)c4)nn3)[C@H]2O)c2ccccc2C(F)(F)F)CC(C)(C)O1` [US12404295, Example 2.42.102S.]: the IC50 came to 7820 nM.
For `CC1(C)CC(O)(C(S[C@@H]2O[C@H](CO)[C@H](O)[C@H](n3cc(-c4cc(F)c(F)c(F)c4)nn3)[C@H]2O)c2ccccc2C(F)(F)F)CC(C)(C)O1` (stereo partly specified) [US12404295, Example 2.42.102.] the value was 380 nM.
As for `OC[C@H]1O[C@@H](SC(c2ncccc2C(F)(F)F)C2(O)CC(F)(F)C2)[C@H](O)[C@@H](n2cc(-c3cc(F)c(F)c(F)c3)nn2)[C@H]1O` (stereo partly specified) [US12404295, Example 2.35.125.], the figure is 320 nM; as for `CO[C@@H]1[C@@H](n2cc(-c3cc(F)c(F)c(F)c3)nn2)[C@@H](O)[C@@H](CO)O[C@H]1SC(c1ncccc1C)C1(O)CCOC(C)(C)C1` (stereo partly specified) [US12404295, Example 2.43.126.I.], 160 nM.
As for `Cc1ccccc1[C@H](S[C@@H]1O[C@H](CO)[C@H](O)[C@H](n2cc(-c3cc(F)c(F)c(F)c3)nn2)[C@H]1O)[C@@]1(O)CCOC(C)(C)C1` [US12404295, Example 2.43.112SR.], the figure is 4900 nM.
On to `OC[C@H]1O[C@@H](S[C@H](c2ccccc2C2CC2)C2(O)CCC(F)(F)CC2)[C@H](O)[C@@H](n2cc(-c3cc(F)c(F)c(F)c3)nn2)[C@H]1O` [US12404295, Example 2.44.106R.*], for which the IC50 was 60 nM.
For `CO[C@@H]1[C@@H](n2cc(-c3cc(F)c(F)c(F)c3)nn2)[C@@H](O)[C@@H](CO)O[C@H]1S[C@H](c1ncccc1C)[C@]1(O)CCOC(C)(C)C1` [US12404295, Example 2.43.126RS.I.] the value was 40 nM; for `Cc1nc([C@H](S[C@@H]2O[C@H](CO)[C@H](O)[C@H](n3cc(-c4cc(F)c(F)c(F)c4)nn3)[C@H]2O)C(C)(C)O)c(C)s1` [US12404295, Example 2.31.123S.], 4700 nM.
For `OC[C@H]1O[C@@H](S[C@H](c2ncccc2C(F)(F)F)C2(O)CC(F)(F)C2)[C@H](O)[C@@H](n2cc(-c3cc(F)c(F)c(F)c3)nn2)[C@H]1O` [US12404295, Example 2.35.125R.] the value was 100 nM.
`CC1(C)C[C@](O)([C@H](S[C@@H]2O[C@H](CO)[C@H](O)[C@H](n3cc(-c4cc(F)c(F)c(F)c4)nn3)[C@H]2O)c2ccccc2C(F)(F)F)CCO1` [US12404295, Example 2.43.102RS.] showed a half-inhibitory concentration (IC50) of 40 nM.
For `OC[C@H]1O[C@@H](S[C@@H](c2ccccc2C2CC2)C2(O)CCC(F)(F)CC2)[C@H](O)[C@@H](n2cc(-c3cc(F)c(F)c(F)c3)nn2)[C@H]1O` [US12404295, Example 2.44.106S.*] the value was 930 nM; for `CC1(C)CC(O)(C(S[C@@H]2O[C@H](CO)[C@H](O)[C@H](n3cc(-c4cc(F)c(F)c(F)c4)nn3)[C@H]2O)c2ccccc2C(F)(F)F)CCO1` (stereo partly specified) [US12404295, Example 2.43.102.], 120 nM.
For `OC[C@H]1O[C@@H](S[C@@H](c2cccc(Cl)c2Cl)C2(O)CCC(F)(F)CC2)[C@H](O)[C@@H](n2cc(-c3cc(F)c(F)c(F)c3)nn2)[C@H]1O` [US12404295, Example 2.44.113S.] the value was 57500 nM; for `CC1(C)C[C@](O)([C@@H](S[C@@H]2O[C@H](CO)[C@H](O)[C@H](n3cc(-c4cc(F)c(F)c(F)c4)nn3)[C@H]2O)c2ccccc2C(F)(F)F)CCO1` [US12404295, Example 2.43.102SS.], 3920 nM.
